Assay results: PMC9928118, “Funneling modulatory peptide design with generative models: Discovery and characterization of disruptors of calcineurin protein-protein interactions” (PLOS Computational Biology, 2023)

Tested on: GST-tagged Cn
Test: PEPperPRINT peptide microarray binding assay with GST-tagged Cn
Method in brief: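 Qualitative binding: peptides printed on a PEPperPRINT microarray were incubated overnight at 4 °C with 1 mg/ml GST-tagged Cn, then detected with Alexa-Fluor 647 anti-GST antibody. Log fluorescence was baseline-corrected, averaged over duplicate spots, Z-normalized and averaged across five repeats.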

[1] = max over the chip locations listed for the peptide (two spots)
[2] = mean over the chip locations listed for the peptide (two spots)
[3] = GST-tagged Cn, max over the chip spots listed under Location on chip
[4] = GST-tagged Cn, mean over the chip spots listed under Location on chip
[5] = GST-tagged Cn, max over the chip locations
[6] = GST-tagged Cn, mean over the chip locations
[7] = max over the spots listed under Location on chip
[8] = mean over the spots listed under Location on chip
[9] = GST-tagged Cn, max over the spots on the chip (two locations)
[10] = GST-tagged Cn, mean over the spots on the chip (two locations)
[11] = GST-tagged Cn, max over the spots named in Location on chip
[12] = GST-tagged Cn, mean over the spots named in Location on chip

Sequence: GPQDIPEVVVSPPEDD [SeqSLC4A7_Austrofundulus_limnaeus]
- Chip Fluorescence (max) [1]: 6.762
- Chip Fluorescence (mean) [2]: 1.072

Sequence: TFWTNPQFVVSLPEPD [SeqRBMlowT_3270]
- Chip Fluorescence (max) [3]: 0.9379
- Chip Fluorescence (mean) [4]: -0.001001

Sequence: TFWTNPQFKITLEEED [SeqRBMlowT_217]
- Chip Fluorescence (max) [1]: 4.393
- Chip Fluorescence (mean) [2]: 0.02338

Sequence: ADEANPQITITPAELP [SeqRBMlowT_1252]
- Chip Fluorescence (max) [5]: -0.527
- Chip Fluorescence (mean) [6]: -1.133

Sequence: TFWTNPQYRITVTDPD [SeqRBMlowT_65]
- Chip Fluorescence (max) [5]: 0.2441
- Chip Fluorescence (mean) [6]: -1.026

Sequence: TFWTNPQFKVKLEEPD [SeqRBMlowT_221]
- Chip Fluorescence (max) [3]: 0.5686
- Chip Fluorescence (mean) [4]: -0.7828

Sequence: ATSGTFPQTDGSHKKQ [SeqRBMlowT_7701]
- Chip Fluorescence (max) [5]: -0.3986
- Chip Fluorescence (mean) [6]: -1.022

Sequence: QSQSNPEITVTPPETE [SeqRIPOR2_Austrofundulus_limnaeus]
- Chip Fluorescence (max) [1]: 10.3742
- Chip Fluorescence (mean) [2]: 0.3512

Sequence: TFWTNPQFRITLEEVD [SeqRBMlowT_245]
- Chip Fluorescence (max) [7]: 2.7449
- Chip Fluorescence (mean) [8]: 0.8824

Sequence: TFWTNPQFRLKLVDVD [SeqRBMlowT_5534]
- Chip Fluorescence (max) [1]: 3.886
- Chip Fluorescence (mean) [2]: 0.4656

Sequence: GLCDSSKVNLVDAGPV [Seqshuffled_9731]
- Chip Fluorescence (max) [9]: 1.002
- Chip Fluorescence (mean) [10]: 0.1299

Sequence: TFWTNPQFRITVTDPD [SeqRBMlowT_669]
- Chip Fluorescence (max) [7]: 2.934
- Chip Fluorescence (mean) [8]: 1.6891

Sequence: NKLKIPHQLSQPINDH [SeqRBM_2163]
- Chip Fluorescence (max) [7]: 2.778
- Chip Fluorescence (mean) [8]: 0.1403

Sequence: RNPGSPVLELEGHSAS [SeqRBMlowT_6392]
- Chip Fluorescence (max) [5]: -0.1475
- Chip Fluorescence (mean) [6]: -0.4043

Sequence: KAYMSPFMQFVDAGRR [SeqSFB3_Nasonia_vitripennis]
- Chip Fluorescence (max) [11]: 1.597
- Chip Fluorescence (mean) [12]: -0.04342

Sequence: VEYDKVWKVAQFVNKC [Seqrandom_9995]
- Chip Fluorescence (max) [3]: 0.5427
- Chip Fluorescence (mean) [4]: -0.6454

Sequence: DAHACAVLGIGSFSLL [SeqRBM_9753]
- Chip Fluorescence (max) [9]: 1.031
- Chip Fluorescence (mean) [10]: -0.08931

Sequence: KAYMCPFMQFIDGGRK [SeqRBMlowT_522]
- Chip Fluorescence (max) [7]: 2.8656
- Chip Fluorescence (mean) [8]: 1.3266

Sequence: HVSSSSDITITPTQHR [SeqRBMlowT_2715]
- Chip Fluorescence (max) [9]: 1.1425
- Chip Fluorescence (mean) [10]: -0.2145

Sequence: PSALIPSLSMDPSMSE [SeqRBM_6067]
- Chip Fluorescence (max) [1]: 4.106
- Chip Fluorescence (mean) [2]: 0.6019

Sequence: TFWMNPQFKISLEDPD [SeqRBMlowT_4243]
- Chip Fluorescence (max) [1]: 3.47
- Chip Fluorescence (mean) [2]: 1.839

Sequence: FHYEDLSWHFQLFEGE [Seqrandom_9976]
- Chip Fluorescence (max) [1]: 5.256
- Chip Fluorescence (mean) [2]: 1.49

Sequence: HVSSSVDIVITPTQHR [SeqRBMlowT_8839]
- Chip Fluorescence (max) [11]: 1.415
- Chip Fluorescence (mean) [12]: 0.2946

Sequence: PGLYDNALGIESFTLS [SeqRBMlowT_2801]
- Chip Fluorescence (max) [11]: 1.445
- Chip Fluorescence (mean) [12]: 0.04021

Sequence: PGCATPRIAITPTENM [SeqRBM_2983]
- Chip Fluorescence (max) [9]: 1.167
- Chip Fluorescence (mean) [10]: 0.2882

Sequence: HVSSSPDIALTPEQHD [SeqRBM_7666]
- Chip Fluorescence (max) [5]: 0.08725
- Chip Fluorescence (mean) [6]: -0.9315

Sequence: SHMAPPAINIDFAPSN [SeqCRZ1_Metarhizium_rileyi]
- Chip Fluorescence (max) [5]: 0.3108
- Chip Fluorescence (mean) [6]: -0.9278

Sequence: GGPGTPGRQGQHLAPS [SeqRBMlowT_7794]
- Chip Fluorescence (max) [5]: 0.3619
- Chip Fluorescence (mean) [6]: -1.021

Sequence: RNPGTFPLELEGHKKQ [SeqRBMlowT_8768]
- Chip Fluorescence (max) [7]: 3.224
- Chip Fluorescence (mean) [8]: 1.049

Sequence: TTLVIPQMRLTSEATF [SeqRBM_1117]
- Chip Fluorescence (max) [1]: 5.611
- Chip Fluorescence (mean) [2]: 1.324

Sequence: SQFDQVHYGLHIATFH [Seqshuffled_4372]
- Chip Fluorescence (max) [9]: 1.111
- Chip Fluorescence (mean) [10]: 0.4902

Sequence: KSKLIPKLSFQSPVHH [SeqRBMlowT_3425]
- Chip Fluorescence (max) [5]: 0.2205
- Chip Fluorescence (mean) [6]: -0.7902

Sequence: TFWTNPQYTITLEEVD [SeqRBMlowT_678]
- Chip Fluorescence (max) [7]: 2.849
- Chip Fluorescence (mean) [8]: 0.5944

Sequence: RLFSVCEQEEEIERAP [Seqshuffled_9643]
- Chip Fluorescence (max) [1]: 4.044
- Chip Fluorescence (mean) [2]: 1.1677

Sequence: PSDDQPGIVVHPCEED [SeqRBMlowT_365]
- Chip Fluorescence (max) [11]: 1.806
- Chip Fluorescence (mean) [12]: 0.4598

Sequence: PSMAAPAINIDFAPTN [SeqRBMlowT_2463]
- Chip Fluorescence (max) [3]: 0.9672
- Chip Fluorescence (mean) [4]: 0.03589

Sequence: LKDEFPDVRLHIISKL [SeqRCN1_Arthroderma_otae]
- Chip Fluorescence (max) [9]: 1.269
- Chip Fluorescence (mean) [10]: 0.6031

Sequence: SAGAGVQIVITVTEAE [SeqRBMlowT_1437]
- Chip Fluorescence (max) [9]: 1.271
- Chip Fluorescence (mean) [10]: -0.4781

Sequence: LNRIEIFVTFNFTRNS [Seqshuffled_5110]
- Chip Fluorescence (max) [7]: 3.363
- Chip Fluorescence (mean) [8]: 0.477

Sequence: HVSSSPDVTLTPTQHR [SeqRBMlowT_4550]
- Chip Fluorescence (max) [3]: 0.8955
- Chip Fluorescence (mean) [4]: -0.3348

Sequence: TFWTNPQFKITLTDPD [SeqRBMlowT_9027]
- Chip Fluorescence (max) [9]: 1.278
- Chip Fluorescence (mean) [10]: -0.7291

Sequence: HISSSPDITATPTQHR [SeqRIPOR2_Calypte_anna]
- Chip Fluorescence (max) [5]: -0.228
- Chip Fluorescence (mean) [6]: -0.7974

Sequence: LSDNRPNVRMEAPMVQ [SeqRBM_9917]
- Chip Fluorescence (max) [5]: 0.09814
- Chip Fluorescence (mean) [6]: -0.3526

Sequence: RQPGQALLTLRGHSKS [SeqRBMlowT_7741]
- Chip Fluorescence (max) [7]: 2.813
- Chip Fluorescence (mean) [8]: 0.6175

Sequence: STSSLPTFSFSSPKPQ [SeqRBMlowT_8920]
- Chip Fluorescence (max) [9]: 1.216
- Chip Fluorescence (mean) [10]: -1.018

Sequence: APSSWPSIVVSPPELN [SeqRBM_1086]
- Chip Fluorescence (max) [11]: 1.655
- Chip Fluorescence (mean) [12]: -0.3843

Sequence: VEEAFPQIIISAEELP [SeqTRESK_Tarsius_syrichta]
- Chip Fluorescence (max) [11]: 1.401
- Chip Fluorescence (mean) [12]: -0.4076

Sequence: KKMAPPAINIDFAPTN [SeqRBMlowT_341]
- Chip Fluorescence (max) [11]: 1.339
- Chip Fluorescence (mean) [12]: -0.05324

Sequence: NFNPNPAVVLKIPQQR [SeqRBM_5953]
- Chip Fluorescence (max) [5]: -0.355
- Chip Fluorescence (mean) [6]: -1.487

Sequence: DSLKIPQVRMRIDSAT [SeqRBM_3711]
- Chip Fluorescence (max) [5]: -0.1629
- Chip Fluorescence (mean) [6]: -1.069

Sequence: RNPGIALLSLRGHKAQ [SeqRBMlowT_8792]
- Chip Fluorescence (max) [9]: 1.2142
- Chip Fluorescence (mean) [10]: 0.3008

Sequence: RNPGQALLTLRGHKAS [SeqRBMlowT_7787]
- Chip Fluorescence (max) [3]: 0.3829
- Chip Fluorescence (mean) [4]: -0.6837

Sequence: THVEKVRFLIQPAGHP [Seqshuffled_9690]
- Chip Fluorescence (max) [3]: 0.887
- Chip Fluorescence (mean) [4]: -0.1564

Sequence: SNLACNDRHPNNEDAK [Seqshuffled_9450]
- Chip Fluorescence (max) [1]: 5.333
- Chip Fluorescence (mean) [2]: 1.133

Sequence: TFWTNPQYRLKLLEED [SeqCAPN11_Tupaia_chinensis]
- Chip Fluorescence (max) [1]: 4.428
- Chip Fluorescence (mean) [2]: 0.5574

Sequence: ADEAAPEIVVSKPEHN [SeqRBMlowT_7698]
- Chip Fluorescence (max) [5]: 0.05556
- Chip Fluorescence (mean) [6]: -1.148

Sequence: SLDEEPGISINEKPVG [Seqshuffled_9948]
- Chip Fluorescence (max) [11]: 1.684
- Chip Fluorescence (mean) [12]: 0.5765

Sequence: TFWMNPQYKIKLEEPD [SeqRBMlowT_4687]
- Chip Fluorescence (max) [11]: 1.8162
- Chip Fluorescence (mean) [12]: 0.005772

Sequence: KAYMCSFMRFIEGGRR [SeqRBMlowT_3379]
- Chip Fluorescence (max) [7]: 2.957
- Chip Fluorescence (mean) [8]: -0.3215

Sequence: ASMSPPCINIDYAPIS [SeqRBM_1607]
- Chip Fluorescence (max) [5]: -0.1231
- Chip Fluorescence (mean) [6]: -1.5167

Sequence: NGPGTPSRQGQPAAPS [SeqRTS1_Penicillium_nalgiovense]
- Chip Fluorescence (max) [3]: 0.9409
- Chip Fluorescence (mean) [4]: -0.6593

Sequence: ADEAPPRITITPYELP [SeqRBMlowT_5415]
- Chip Fluorescence (max) [1]: 3.784
- Chip Fluorescence (mean) [2]: 1.112

Sequence: SSQGSSRPARSPERTV [SeqRBM_2387]
- Chip Fluorescence (max) [3]: 0.4699
- Chip Fluorescence (mean) [4]: -0.1808
